According to patent publication US9469668B2, “Magnetic substance” (IHI CORPORATION, priority 2013, dated 2016):

What was measured:
[1] = Saturation magnetization measurement (magnetic property evaluation device MPMS7); format: physicochemical
Procedure: The measurement was conducted based on a magnetic property evaluation device MPMS7 manufactured by Kantum.

[2] = Particle diameter of single crystal by transmission electron microscope; format: physicochemical; details: single crystal of the salen complex having the highest ferromagnetic property; TEM, 140 samples
Procedure: A used device, conditions, and so on are as follows. Device: transmission electron microscope (H-7100FA manufactured by Hitachi) Conditions: acceleration voltage 100 kV Sample adjustment: dispersion method (after the salen complex was ground with a mortar, pure water was added to the ground salen complex, which was then dispersed in a grid by TEM) Grain size distribution measurement software: Image-Pro plus (Media cybermetrics, MD, U.S.A.) Measured target: traced images of the iron-salen complex in TEM photographs Number of samples: 140

saturation magnetization ([1]; crystals having the highest magnetic property among 5-6 iron-salen complex preparations): 1.25 emu/g
saturation magnetization ([1]; crystals having the lowest magnetic property among those complexes): 0.02 emu/g
average particle diameter [2]: 450 nm
Compound: Oc1ccccc1C=NCCN=Cc1ccccc1O.[Fe+2] [iron-salen complex, N,N′-bis(salicylidene)ethylenediamine iron(II)]
